Values belong to the compound of their own block, whether it stands above or below them. Active and inactive are the calls of the source. The rule behind the calls is not given here.
Legend:
[1] = target: T1, Aurora kinase A (Homo sapiens) (UniProt O14965); experiment: Inhibition of human recombinant aurora-2 kinase expressed in Sf9 cells at 20 uM using kemptide as substrate by kinase-Glo luciferase assay
T1 sequence (whole entry): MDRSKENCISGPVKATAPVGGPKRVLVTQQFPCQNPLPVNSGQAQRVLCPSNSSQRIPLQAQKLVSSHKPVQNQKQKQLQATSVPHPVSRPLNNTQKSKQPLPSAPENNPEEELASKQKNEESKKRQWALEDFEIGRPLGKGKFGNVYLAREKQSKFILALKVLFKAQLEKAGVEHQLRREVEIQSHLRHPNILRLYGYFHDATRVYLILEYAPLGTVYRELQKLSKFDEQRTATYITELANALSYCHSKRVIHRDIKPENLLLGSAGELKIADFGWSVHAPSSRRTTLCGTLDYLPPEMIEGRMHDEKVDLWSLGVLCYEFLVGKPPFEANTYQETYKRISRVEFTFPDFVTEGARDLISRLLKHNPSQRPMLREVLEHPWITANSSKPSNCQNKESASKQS

ASPC1 = experiment: Inhibition of cell proliferation of human AsPC1 cells at 0.1 to 1000 uM after 4 days by MTS assay; format: functional, cell-based
COLO 320 = experiment: Inhibition of cell proliferation of human COLO320 cells at 0.1 to 1000 uM after 4 days by MTS assay; format: functional
MDA-MB-435 = experiment: Inhibition of cell proliferation of human MDA-MB-435 cells at 0.1 to 1000 uM after 4 days by MTS assay; format: functional, cell-based
A2780 = experiment: Inhibition of cell proliferation of human A2780 cells at 0.1 to 1000 uM after 4 days by MTS assay; format: functional, cell-based
Caco-2 = experiment: Inhibition of cell proliferation of human Caco2 cells at 0.1 to 1000 uM after 4 days by MTS assay; format: functional, cell-based
MIA PaCa-2 [2] = experiment: Inhibition of cell proliferation of human MIAPaCa2 cells at 0.01 to 1000 uM after 4 days by MTS assay; format: functional, cell-based
MIA PaCa-2 [3] = experiment: Inhibition of cell proliferation of human MIAPaCa2 cells at 3 to 300 uM after 48 hrs by hematocytometry; format: functional, cell-based
T47D = experiment: Inhibition of cell proliferation of human T47D cells at 0.1 to 1000 uM after 4 days by MTS assay; format: functional, cell-based
PANC-1 = experiment: Inhibition of cell proliferation of human PANC1 cells at 0.01 to 1000 uM after 4 days by MTS assay; format: functional, cell-based
MCF7 = experiment: Inhibition of cell proliferation of human MCF7 cells at 0.1 to 1000 uM after 4 days by MTS assay; format: functional, cell-based

inhibition [1]: Active
SMILES: O=S(=O)(Nc1ncccn1)c1ccc(Nc2ncnc3c2sc2ncccc23)cc1

inhibition [1]: Active
SMILES: COc1cc2ncnc(N3CCN(C(=S)Nc4ccc(S(=O)(=O)Nc5ncccn5)cc4)CC3)c2cc1OC

SMILES: COc1cc2[nH]c3ncnc(N4CCN(C(=S)Nc5ccc(S(=O)(=O)Nc6ncccn6)cc5)CC4)c3c2cc1OC
inhibition (ASPC1): Active
inhibition (COLO 320): Active
inhibition (MDA-MB-435): Active
inhibition (A2780): Active
inhibition (Caco-2): Active
inhibition (MIA PaCa-2 [2]): Active
inhibition (MIA PaCa-2 [3]): Active
inhibition (T47D): Active
inhibition (PANC-1): Active
inhibition (MCF7): Active

inhibition [1]: Active
SMILES: COc1cc2ncnc(Nc3cccc(Br)c3)c2cc1OC

inhibition [1]: Active
SMILES: O=S(=O)(Nc1ncccn1)c1ccc(Nc2ncnc3c2oc2ccccc23)cc1
